# Reference: patent publication US20230081426A1, “COMPOUNDS AND METHODS FOR KRAS MODULATION AND INDICATIONS THEREFOR” (Plexxikon Inc., priority 2020, published 2023)
# Columns and labels:
# [1] = target: T1, G12D-mutant human KRAS (amino acid residues 1-188) (Homo sapiens, UniProt P01116, G12D); experiment: KRAS Binding Disruption Assay (AlphaScreen; biotinylated KRpep-2d analogue or RAF1-RBD), G12D; settings: KRAS G12D; geometric mean; read-out: KRAS GMean IC50 (uM) MUTATION: G12D
# T1 construct: G12D or G12C-mutant human KRAS (amino acid residues 1-188) with FLAG tag; made in house; host or cells: E. coli
# How it was run: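 AlphaScreen readout: signal falls as compound displaces biotinylated KRpep-2d analogue or RAF1-RBD from mutant KRAS. Both partners at 5-20 nM, 1 h binding at 25° C, then 10 μg/mL Anti-Flag acceptor and streptavidin donor beads for 1 h. IC50 by nonlinear regression of % inhibition.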
# [2] = target: T2, G12V-mutant human KRAS (amino acid residues 1-188) (Homo sapiens, UniProt P01116, G12V); experiment: KRAS Binding Competition Assay (AlphaScreen; biotinylated KRpep-2d analogue), G12V; settings: geometric mean, read-out: KRAS GMean IC50 (uM) MUTATION: G12V
# T2 construct: G12V-mutant human KRAS (amino acid residues 1-188) with FLAG tag was purified from E. coli; made in house; host or cells: E. coli
Structure (SMILES),IC50 [1] [µM],IC50 [2] [µM]
"CN1CCC[C@H]1COc1nc(N2[C@@H]3CC[C@H]2CN(C(=O)C(N)=O)C3)c2ccc(-c3cc(O)cc4ccccc34)cc2n1 [P-0217, 2-((1R,5S)-8-(7-(3-hydroxynaphthalen-1-yl)-2-(((S)-1-methylpyrrolidin-2-yl)methoxy)quinazolin-4-yl)-3,8-diazabicyclo[3.2.1]octan-3-yl)-2-oxoacetamide]",10 to 100,10 to 100
CN1CCC[C@H]1COc1nc(N2CC3CCC(C2)N3)c2ccc(-c3cc(Cl)cn4ccnc34)cc2n1 [P-0235],10 to 100,10 to 100
"CN1CCC[C@H]1COc1nc(N2CC3CCC(C2)N3)c2ccc(-c3cccc(NS(C)(=O)=O)c3)cc2n1 [P-0170, N-(3-(4-((1R,5S)-3,8-diazabicyclo[3.2.1]octan-3-yl)-2-(((S)-1-methylpyrrolidin-2-yl)methoxy)quinazolin-7-yl)phenyl)meanesulfonamide]",100 to 1000,100 to 1000
"CN1CCC[C@H]1COc1nc(N2[C@@H]3CC[C@H]2CNC3)c2ccc(-c3cccc4cccc(CO)c34)cc2n1 [P-0283, (8-(4-((1R,5S)-3,8-diazabicyclo[3.2.1]octan-8-yl)-2-(((S)-1-methylpyrrolidin-2-yl)methoxy)quinazolin-7-yl)naphthalen-1-yl)methanol]",10 to 100,10 to 100
"Cc1ccnc(-c2ccc3c(N4[C@@H]5CC[C@H]4CNC5)nc(OC[C@@H]4CCCN4C)nc3c2)c1C [P-0261, 4-((1R,5S)-3,8-diazabicyclo[3.2.1]octan-8-yl)-7-(3,4-dimethylpyridin-2-yl)-2-(((S)-1-methylpyrrolidin-2-yl)methoxy)quinazoline]",100 to 1000,100 to 1000
"CN1CCC[C@H]1COc1nc(N2[C@@H]3CC[C@H]2CN(C(=O)CCCn2ccnc2)C3)c2ccc(-c3cc(O)cc4ccccc34)cc2n1 [P-0195, 1-((1R,5S)-8-(7-(3-hydroxynaphthalen-1-yl)-2-(((S)-1-methylpyrrolidin-2-yl)methoxy)quinazolin-4-yl)-3,8-diazabicyclo[3.2.1]octan-3-yl)-4-(1H-imidazol-1-yl)butan-1-one]",10 to 100,10 to 100
"Cc1cccc2c(Nc3c(F)cc4c(N5C[C@H]6CC[C@@H](C5)N6)nc(OC[C@@H]5CCCN5C)nc4c3F)n[nH]c12 [P-0457, 4-((1R,5S)-3,8-diazabicyclo[3.2.1]octan-3-yl)-6,8-difluoro-N-(7-methyl-1H-indazol-3-yl)-2-(((S)-1-methylpyrrolidin-2-yl)methoxy)quinazolin-7-amine]",10 to 100,10 to 100
"OCC1CCN(c2nc(N3C[C@H]4CC[C@@H](C3)N4)c3ccc(-c4cc(O)cc5ccccc45)c(F)c3n2)C1 (stereo partly drawn) [P-0634, 4-(4-((1R,5S)-3,8-diazabicyclo[3.2.1]octan-3-yl)-8-fluoro-2-(3-(hydroxymethyl)pyrrolidin-1-yl)quinazolin-7-yl)naphthalen-2-ol]",0.0001 to 10,100 to 1000
"Oc1cccc(F)c1-c1c(Cl)cc2c(N3C[C@H]4CC[C@@H](C3)N4)nc(OCC34CCCN3CCC4)nc2c1F [P-0392, 2-(4-((1R,5S)-3,8-diazabicyclo[3.2.1]octan-3-yl)-6-chloro-8-fluoro-2-((tetrahydro-1H-pyrrolizin-7a(5H)-yl)methoxy)quinazolin-7-yl)-3-fluorophenol]",0.0001 to 10,10 to 100
"CN1CCC[C@H]1COc1nc(N2C[C@H]3CC[C@@H](C2)N3CC(O)CO)c2ccc(-c3cc(O)cc4ccccc34)c(F)c2n1 (stereo partly drawn) [P-0472, 3-((1R,5S)-3-(8-fluoro-7-(3-hydroxynaphthalen-1-yl)-2-(((S)-1-methylpyrrolidin-2-yl)methoxy)quinazolin-4-yl)-3,8-diazabicyclo[3.2.1]octan-8-yl)propane-1,2-diol]",0.0001 to 10,0.0001 to 10
"Oc1cc(-c2ccc3c(N4C[C@H]5CC[C@@H](C4)N5)nc(NCC45CCCN4CCC5)nc3c2F)c2ccccc2c1 [P-0631, 4-(4-((1R,5S)-3,8-diazabicyclo[3.2.1]octan-3-yl)-8-fluoro-2-(((tetrahydro-1H-pyrrolizin-7a(5H)-yl)methyl)amino)quinazolin-7-yl)naphthalen-2-ol]",0.0001 to 10,10 to 100
"O=Cc1cccc2[nH]cc(-c3c(F)cc4c(N5C[C@H]6CC[C@@H](C5)N6)nc(OCC56CCCN5CCC6)nc4c3F)c12 [P-0624, 3-(4-((1R,5S)-3,8-diazabicyclo[3.2.1]octan-3-yl)-6,8-difluoro-2-((tetrahydro-1H-pyrrolizin-7a(5H)-yl)methoxy)quinazolin-7-yl)-1H-indole-4-carbaldehyde]",0.0001 to 10,10 to 100

# Second part, the compound after the results:
IC50 [1] [µM],IC50 [2] [µM],Structure (SMILES)
0.0001 to 10,0.0001 to 10,"O=C(Cc1n[nH]c2ccccc12)N1[C@@H]2CC[C@H]1CN(c1nc(OCC34CCCN3CCC4)nc3c(F)c(-c4cc(O)cc5ccccc45)ccc13)C2 [P-0433, 1-((1R,5S)-3-(8-fluoro-7-(3-hydroxynaphthalen-1-yl)-2-((tetrahydro-1H-pyrrolizin-7a(5H)-yl)methoxy)quinazolin-4-yl)-3,8-diazabicyclo[3.2.1]octan-8-yl)-2-(1H-indazol-3-yl)ethan-1-one]"
0.0001 to 10,0.0001 to 10,"O=C([C@H]1CCNC1)N1[C@@H]2CC[C@H]1CN(c1nc(OCC34CCCN3CCC4)nc3cc(-c4cc(O)cc5ccccc45)ccc13)C2 [P-0112, ((1R,5S)-3-(7-(3-hydroxynaphthalen-1-yl)-2-((tetrahydro-1H-pyrrolizin-7a(5H)-yl)methoxy)quinazolin-4-yl)-3,8-diazabicyclo[3.2.1]octan-8-yl)((S)-pyrrolidin-3-yl)methanone]"
0.0001 to 10,0.0001 to 10,"CN(C)c1cccc(COc2nc(N3[C@@H]4CC[C@H]3CNC4)c3ccc(-c4cc(O)cc5ccccc45)cc3n2)c1 [P-0320, 4-(4-((1R,5S)-3,8-diazabicyclo[3.2.1]octan-8-yl)-2-((3-(dimethylamino)benzyl)oxy)quinaz-olin-7-yl)naphthalen-2-ol]"
0.0001 to 10,10 to 100,"CN1CCCC1COc1nc(N2C[C@H]3CC[C@@H](C2)N3C(=O)NC2CCN(C3CCCCC3)C2)c2ccc(-c3cc(O)cc4ccccc34)c(F)c2n1 (stereo partly drawn) [P-0419, (1R,5S)-N-(1-cyclohexylpyrrolidin-3-yl)-3-(8-fluoro-7-(3-hydroxynaphthalen-1-yl)-2-((1-methylpyrrolidin-2-yl)methoxy)quinazolin-4-yl)-3,8-diazabicyclo[3.2.1]octane-8-carboxamide]"
0.0001 to 10,0.0001 to 10,"CC(C(=O)N1[C@@H]2CC[C@H]1CN(c1nc(OCC34CCCN3CCC4)nc3c(F)c(-c4cc(O)cc5ccccc45)ccc13)C2)S(N)(=O)=O (stereo partly drawn) [P-0449, 1-((1R,5S)-3-(8-fluoro-7-(3-hydroxynaphthalen-1-yl)-2-((tetrahydro-1H-pyrrolizin-7a(5H)-yl)methoxy)quinazolin-4-yl)-3,8-diazabicyclo[3.2.1]octan-8-yl)-1-oxopropane-2-sulfonamide]"
0.0001 to 10,0.0001 to 10,"C[C@@H](Oc1nc(N2C[C@H]3CC[C@@H](C2)N3)c2ccc(-c3cc(O)cc4ccccc34)cc2n1)[C@@H]1CCCN1C [P-0245, 4-(4-((1R,5S)-3,8-diazabicyclo[3.2.1]octan-3-yl)-2-((R)-1-((S)-1-methylpyrrolidin-2-yl)ethoxy)quinazolin-7-yl)naphthalen-2-ol]"
0.0001 to 10,0.0001 to 10,"Nc1ccc(CCc2nc(N3[C@@H]4CC[C@H]3CNC4)c3ccc(-c4cc(O)cc5ccccc45)cc3n2)cc1 [P-0243, 4-(2-(4-aminophenethyl)-4-((1R,5S)-3,8-diazabicyclo[3.2.1]octan-8-yl)quinazolin-7-yl)naphthalen-2-ol]"
0.0001 to 10,10 to 100,"CC(C)(CN)COc1nc(N2C[C@H]3CC[C@@H](C2)N3)c2ccc(-c3cc(O)cc4ccccc34)c(F)c2n1 [P-0618, 4-(2-(3-amino-2,2-dimethylpropoxy)-4-((1R,5S)-3,8-diazabicyclo[3.2.1]octan-3-yl)-8-fluoroquinazolin-7-yl)naphthalen-2-ol]"
0.0001 to 10,10 to 100,"N#CCc1cccc2[nH]cc(-c3ccc4c(N5C[C@H]6CC[C@@H](C5)N6)nc(OCC56CCCN5CCC6)nc4c3F)c12 [P-0615, 2-(3-(4-((1R,5S)-3,8-diazabicyclo[3.2.1]octan-3-yl)-8-fluoro-2-((tetrahydro-1H-pyrrolizin-7a(5H)-yl)methoxy)quinazolin-7-yl)-1H-indol-4-yl)acetonitrile]"
0.0001 to 10,0.0001 to 10,"CN1CCC[C@H]1COc1nc(N2C[C@H]3CC[C@@H](C2)N3C(=O)CCC(N)=O)c2ccc(-c3cc(O)cc4ccccc34)c(F)c2n1 [P-0399, 4-((1R,5S)-3-(8-fluoro-7-(3-hydroxynaphthalen-1-yl)-2-(((S)-1-methylpyrrolidin-2-yl)methoxy)quinazolin-4-yl)-3,8-diazabicyclo[3.2.1]octan-8-yl)-4-oxobutanamide]"
0.0001 to 10,10 to 100,"CN1CCC[C@H]1COc1nc(N2C[C@H]3CC[C@@H](C2)N3C(=O)[C@@H](N)CO)c2ccc(-c3cc(O)cc4ccccc34)c(F)c2n1 [P-0424, (S)-2-amino-1-((1R,5S)-3-(8-fluoro-7-(3-hydroxynaphthalen-1-yl)-2-(((S)-1-methylpyrrolidin-2-yl)methoxy)quinazolin-4-yl)-3,8-diazabicyclo[3.2.1]octan-8-yl)-3-hydroxypropan-1-one]"
0.0001 to 10,0.0001 to 10,"CN(C)c1ccc(/C=C/c2nc(N3C[C@H]4CC[C@@H](C3)N4)c3cc(Cl)c(-c4c(O)cccc4F)c(F)c3n2)cc1 [P-0355, 2-(4-((1R,5S)-3,8-diazabicyclo[3.2.1]octan-3-yl)-6-chloro-2-((E)-4-(dimethylamino)styryl)-8-fluoroquinazolin-7-yl)-3-fluorophenol]"
